# Test results published in PubChem BioAssay (NCI).
#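 Five compound concentrations were applied to cells in 96-well plates for 48 hours; endpoints were derived by simple linear interpolation of the resulting dose-response curve. TGI is the concentration that stops growth completely.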
# Legend:
# Experiment in all cases: NCI anticancer screen, dose series, 48 h
# [1] = test system: A498 renal
# [2] = test system: CCRF-CEM leukemia
# [3] = test system: SK-OV-3 ovarian
# [4] = test system: HCT-15 colon
# [5] = test system: ACHN renal
# [6] = test system: A549 NSCLC
# [7] = test system: EKVX NSCLC
# [8] = test system: NCI-H23 lung
# [9] = test system: KM12 colon
# [10] = test system: SF-295 CNS
# [11] = test system: U251 CNS
# [12] = test system: PC-3 prostate
# [13] = test system: HS 578T breast
# [14] = test system: MCF7 breast
# [15] = test system: MDA-MB-231 breast
# [16] = test system: M14 melanoma
# [17] = test system: OVCAR-4 ovarian
# [18] = test system: RXF 393 renal
# [19] = test system: COLO 205 colon
# [20] = test system: UO-31 renal
# [21] = test system: SK-MEL-28 melanoma
# [22] = test system: OVCAR-8 ovarian
# [23] = test system: SR leukemia
# [24] = test system: HOP-62 NSCLC
# [25] = test system: TK-10 renal
# [26] = test system: SK-MEL-5 melanoma
# [27] = test system: MALME-3M melanoma
# [28] = test system: OVCAR-3 ovarian
# [29] = test system: OVCAR-5 ovarian
# [30] = test system: LOX IMVI melanoma
# [31] = test system: NCI-H522 lung
# [32] = test system: NCI-H226 lung
# [33] = test system: DU-145 prostate
# [34] = test system: SN12C renal
# [35] = test system: T-47D breast
# [36] = test system: SNB-19 CNS
# [37] = test system: MDA-N
# [38] = test system: CAKI-1 renal
# [39] = test system: SK-MEL-2 melanoma
# [40] = test system: 786-0 renal
# [41] = test system: MOLT-4 leukemia
# [42] = test system: HT29 colon
# [43] = test system: UACC-62 melanoma
# [44] = test system: BT-549 breast
# [45] = test system: NCI/ADR-RES ovarian
# [46] = test system: RPMI-8226 leukemia
# [47] = test system: SNB-75 CNS
# [48] = test system: HCT-116 colon
# [49] = test system: K-562 leukemia
# [50] = test system: SF-268 CNS
# [51] = test system: IGROV1 ovarian
# [52] = test system: UACC-257 melanoma
# [53] = test system: MDA-MB-435
# [54] = test system: SW-620 colon
# [55] = test system: HL-60(TB) leukemia
# [56] = test system: HCC-2998 colon
# [57] = test system: NCI-H460 lung
# [58] = test system: SF-539 CNS
compound,measurement,setting,value
CC(Cc1ccc(Cl)cc1Cl)NO (centres undefined),TGI,[1],> 100 µM
same,TGI,[2],> 100 µM
same,TGI,[3],> 100 µM
same,TGI,[4],> 100 µM
same,TGI,[5],> 100 µM
same,TGI,[6],> 100 µM
same,TGI,[7],> 100 µM
same,TGI,[8],> 100 µM
same,TGI,[9],> 100 µM
same,TGI,[10],> 100 µM
same,TGI,[11],> 100 µM
same,TGI,[12],> 100 µM
same,TGI,[13],> 100 µM
same,TGI,[14],> 100 µM
same,TGI,[15],> 100 µM
same,TGI,[16],> 100 µM
same,TGI,[17],> 100 µM
same,TGI,[18],> 100 µM
same,TGI,[19],> 100 µM
same,TGI,[20],> 100 µM
same,TGI,[21],> 100 µM
same,TGI,[22],> 100 µM
same,TGI,[23],> 100 µM
same,TGI,[24],> 100 µM
same,TGI,[25],> 100 µM
same,TGI,[26],> 100 µM
same,TGI,[27],> 100 µM
same,TGI,[28],> 100 µM
same,TGI,[29],> 100 µM
same,TGI,[30],> 100 µM
same,TGI,[31],> 100 µM
same,TGI,[32],> 100 µM
same,TGI,[33],> 100 µM
same,TGI,[34],> 100 µM
same,TGI,[35],> 100 µM
same,TGI,[36],> 100 µM
same,TGI,[37],> 100 µM
same,TGI,[38],> 100 µM
same,TGI,[39],> 100 µM
same,TGI,[40],> 100 µM
same,TGI,[41],> 100 µM
same,TGI,[42],> 100 µM
same,TGI,[43],> 100 µM
same,TGI,[44],> 100 µM
same,TGI,[45],> 100 µM
same,TGI,[46],> 100 µM
same,TGI,[47],> 100 µM
same,TGI,[48],> 100 µM
same,TGI,[49],> 100 µM
same,TGI,[50],> 100 µM
same,TGI,[51],> 100 µM
same,TGI,[52],> 100 µM
same,TGI,[53],> 100 µM
same,TGI,[54],> 100 µM
CCOC(=O)C1(Cc2ccccc2)Cc2cc3c(cc2C1)CCC3,TGI,[1],> 100 µM
same,TGI,[2],36.6 µM
same,TGI,[3],90.9 µM
same,TGI,[4],> 100 µM
same,TGI,[5],> 100 µM
same,TGI,[6],> 100 µM
same,TGI,[7],> 100 µM
same,TGI,[8],> 100 µM
same,TGI,[9],> 100 µM
same,TGI,[10],85.8 µM
same,TGI,[11],> 100 µM
same,TGI,[12],> 100 µM
same,TGI,[13],> 100 µM
same,TGI,[14],53 µM
same,TGI,[15],> 100 µM
same,TGI,[16],> 100 µM
same,TGI,[17],98.4 µM
same,TGI,[19],45.2 µM
same,TGI,[20],> 100 µM
same,TGI,[21],> 100 µM
same,TGI,[22],> 100 µM
same,TGI,[23],65.1 µM
same,TGI,[24],> 100 µM
same,TGI,[55],76.9 µM
same,TGI,[25],> 100 µM
same,TGI,[27],> 100 µM
same,TGI,[28],> 100 µM
same,TGI,[29],66.3 µM
same,TGI,[30],43.9 µM
same,TGI,[31],96.2 µM
same,TGI,[32],76.8 µM
same,TGI,[33],> 100 µM
same,TGI,[34],> 100 µM
same,TGI,[35],> 100 µM
same,TGI,[36],> 100 µM
same,TGI,[37],> 100 µM
same,TGI,[38],> 100 µM
same,TGI,[39],34.3 µM
same,TGI,[40],> 100 µM
same,TGI,[56],52.8 µM
same,TGI,[57],> 100 µM
same,TGI,[41],58.6 µM
same,TGI,[42],46.2 µM
same,TGI,[43],> 100 µM
same,TGI,[44],95.3 µM
same,TGI,[45],> 100 µM
same,TGI,[46],51.7 µM
same,TGI,[58],> 100 µM
same,TGI,[48],> 100 µM
same,TGI,[49],> 100 µM
same,TGI,[50],> 100 µM
same,TGI,[51],> 100 µM
same,TGI,[52],> 100 µM
same,TGI,[53],> 100 µM
same,TGI,[54],> 100 µM
